Test [1] in a line: Displacement of [3H]SCH 23390 from dopamine D1-like receptor in Sprague-Dawley rat caudate putamen after 90 mins. In kind it is tissue-based.
For test [2], the target named is D(3) dopamine receptor (Rattus norvegicus, UniProt P19020). The test can be described thus: Displacement of [3H]R-(+)-7-OHDPAT from dopamine D3 receptor in Sprague-Dawley rat ventral striatum after 90 mins. A general note: In a radioligand displacement assay an active substance lowers the binding of a labelled ligand.
In test [3] the target is T1, D(3) dopamine receptor (Homo sapiens, UniProt P35462). The test can be described thus: Displacement of [3H]N-methylspiperone from human dopamine D3 receptor expressed in HEK293 cells after 1 hr by liquid scintillation counting analysis. Format: cell-based.
Test [4] addresses D(2) dopamine receptor (Rattus norvegicus, UniProt P61169). Description: Displacement of [3H]Spiperone from dopamine D2-like receptor in Sprague-Dawley rat caudate putamen after 90 mins. Format: tissue-based.
For test [5], the species on record is Rattus norvegicus. The test can be described thus: Selectivity ratio of Ki for dopamine D2-like receptor in Sprague-Dawley rat caudate putamen to Ki for dopamine D3 receptor in Sprague-Dawley rat ventral striatum. In kind it is tissue-based.
For test [6], the species on record is Rattus norvegicus. Description: Selectivity ratio of Ki for dopamine D1-like receptor in Sprague-Dawley rat caudate putamen to Ki for dopamine D3 receptor in Sprague-Dawley rat ventral striatum. Format: tissue-based.
The target of test [7] is T1, D(3) dopamine receptor. The following applies: U2OS.
The target in test [8] is D(2) dopamine receptor (Homo sapiens, UniProt P14416). The test can be described thus: Displacement of [3H]N-methylspiperone from human dopamine D2 receptor expressed in HEK293 cells after 1 hr by liquid scintillation counting analysis. Format: cell-based.
The target of test [9] is T1, D(3) dopamine receptor.

In general, Ki refers to the dissociation constant of the complex between target and ligand, obtained from inhibition or displacement. A low value points to a stronger hold on the target. What is called IC50 is the concentration needed to halve the response being measured. The low end stands for greater potency in that assay, the high end for weaker potency in that assay.

SMILES strings stand for the structures.

Sequence of D(3) dopamine receptor (Rattus norvegicus, UniProt P19020) (P19020 whole entry): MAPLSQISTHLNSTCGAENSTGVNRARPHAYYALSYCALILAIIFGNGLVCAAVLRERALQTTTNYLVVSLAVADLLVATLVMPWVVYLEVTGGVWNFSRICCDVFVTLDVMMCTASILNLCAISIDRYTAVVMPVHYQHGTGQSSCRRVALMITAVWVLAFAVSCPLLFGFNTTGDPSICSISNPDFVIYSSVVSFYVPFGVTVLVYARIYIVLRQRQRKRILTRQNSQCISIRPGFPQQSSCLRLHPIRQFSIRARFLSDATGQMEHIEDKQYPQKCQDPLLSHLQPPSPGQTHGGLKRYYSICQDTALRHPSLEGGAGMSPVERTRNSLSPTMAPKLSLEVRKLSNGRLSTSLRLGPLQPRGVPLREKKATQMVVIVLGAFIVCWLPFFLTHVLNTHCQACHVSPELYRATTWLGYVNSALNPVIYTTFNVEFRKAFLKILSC
Sequence of D(2) dopamine receptor (Rattus norvegicus, UniProt P61169) (P61169 whole entry): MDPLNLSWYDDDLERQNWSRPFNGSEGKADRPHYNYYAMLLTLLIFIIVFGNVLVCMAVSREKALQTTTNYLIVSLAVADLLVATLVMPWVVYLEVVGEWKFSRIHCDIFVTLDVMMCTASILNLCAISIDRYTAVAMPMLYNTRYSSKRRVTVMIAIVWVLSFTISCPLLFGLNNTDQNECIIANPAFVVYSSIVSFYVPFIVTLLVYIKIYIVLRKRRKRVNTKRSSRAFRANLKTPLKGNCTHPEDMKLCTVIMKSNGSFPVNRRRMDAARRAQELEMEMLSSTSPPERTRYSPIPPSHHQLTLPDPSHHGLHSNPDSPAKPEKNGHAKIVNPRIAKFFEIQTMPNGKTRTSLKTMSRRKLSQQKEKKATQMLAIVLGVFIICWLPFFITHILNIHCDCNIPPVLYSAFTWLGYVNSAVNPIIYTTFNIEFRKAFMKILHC
T1 sequence (P35462 whole entry): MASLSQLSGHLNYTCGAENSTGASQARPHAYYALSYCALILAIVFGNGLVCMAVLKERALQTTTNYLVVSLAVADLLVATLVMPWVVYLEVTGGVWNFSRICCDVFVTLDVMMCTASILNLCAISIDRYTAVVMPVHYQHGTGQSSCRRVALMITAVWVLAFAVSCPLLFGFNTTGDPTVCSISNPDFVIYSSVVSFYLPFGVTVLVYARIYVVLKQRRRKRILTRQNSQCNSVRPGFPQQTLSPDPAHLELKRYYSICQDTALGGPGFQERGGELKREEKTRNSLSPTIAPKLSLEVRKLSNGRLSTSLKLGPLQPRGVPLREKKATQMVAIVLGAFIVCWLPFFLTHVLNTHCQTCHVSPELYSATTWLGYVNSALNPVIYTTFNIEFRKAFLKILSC
Sequence of D(2) dopamine receptor (Homo sapiens, UniProt P14416) (P14416 whole entry): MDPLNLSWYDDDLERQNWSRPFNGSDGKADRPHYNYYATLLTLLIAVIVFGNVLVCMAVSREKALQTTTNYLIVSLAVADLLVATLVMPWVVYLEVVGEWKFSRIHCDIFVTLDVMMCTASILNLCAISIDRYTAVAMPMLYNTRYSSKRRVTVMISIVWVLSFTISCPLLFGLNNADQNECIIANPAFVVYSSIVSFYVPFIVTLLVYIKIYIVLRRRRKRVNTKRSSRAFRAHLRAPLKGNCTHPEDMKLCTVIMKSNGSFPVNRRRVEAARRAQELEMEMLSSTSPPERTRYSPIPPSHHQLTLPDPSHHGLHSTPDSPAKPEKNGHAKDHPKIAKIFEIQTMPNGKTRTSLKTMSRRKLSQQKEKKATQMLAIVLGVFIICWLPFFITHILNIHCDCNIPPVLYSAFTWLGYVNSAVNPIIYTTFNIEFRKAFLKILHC

For the compound `Cc1ncoc1-c1nnc(SCCCN2CC3CC3(c3ccc(C(F)(F)F)cc3F)C2)n1C` (stereo not drawn), the inhibitory constant (Ki) in test [1] was found to be 38800 nM; in test [2], 46 nM.
In turn, `CCN1CCC[C@H]1CNC(=O)c1c(O)c(Cl)cc(Cl)c1OC` [RACLOPRIDE] showed a Ki in [3] of 13.4 nM.
With `CCCN(CC[C@]1(O)C[C@@H](NC(=O)c2ccc3ccccc3c2)C1)[C@@H]1C[C@H]1c1ccccc1`, the Ki in test [1] is 2820 nM; in [2] it was 44 nM; in test [4], 1310 nM. Besides, the Ratio Ki stood at 30 in test [5] and 64 in test [6].
Consider `CCCN[C@H]1C[C@@H]1c1ccccc1`, for which the figures for the Ki in test [1], in test [2] and in test [4] were 123000 nM, 1170 nM and 95600 nM, respectively. The values for the Ratio Ki in test [5] and in [6] were 82 and 105, respectively.
For the compound `CCCN(CC[C@]1(O)C[C@@H](NC(=O)c2ccc3ccccc3c2)C1)[C@H]1C[C@@H]1c1cccc(Cl)c1` (racemic), the Ki is 1800 nM in test [1] and > 300000 nM in test [4]. Moreover, the Ratio Ki in test [6] worked out at 64.
On to `CCCN(CC[C@]1(O)C[C@@H](NC(=O)c2ccc3ccccc3c2)C1)[C@H]1C[C@@H]1c1ccc(Cl)cc1`, for which the Ki in test [1] was 20700 nM; in test [2] it was 457 nM; in test [4], > 100000 nM.
`CCCN[C@@H]1C[C@H]1c1ccccc1`: the Ki in test [1] stood at 90600 nM; in [2] it was 1200 nM; in [4], 96600 nM. Further, the figures for the Ratio Ki in test [5] and in [6] were 81 and 76, respectively.
Take `CCCN(CC[C@]1(O)C[C@@H](NC(=O)c2ccc3ccccc3c2)C1)[C@H]1C[C@@H]1c1ccccc1Cl` (racemic): the Ki in test [1] came to 743 nM. The values for the Ratio Ki in test [5] and in test [6] were 26 and 39, respectively.
The compound `CCCN[C@H]1CCc2nc(N)sc2C1` yielded an ED50 in [7] of 3.7 nM.
As to `CCc1cc(Cl)c(OC)c(C(=O)NC[C@@H]2CCCN2CC)c1O` [ETICLOPRIDE], affinity in test [8] was put at a Ki of 0.086 nM.
Compound `CCCN(CC[C@]1(O)C[C@@H](NC(=O)c2ccc3ccccc3c2)C1)C1CC1c1ccc(Cl)cc1` (mixture of isomers) returned a Ki in test [1] of 2200 nM.
As to `CCCN(CC[C@]1(O)C[C@@H](NC(=O)c2ccc3ccccc3c2)C1)[C@@H]1C[C@H]1c1ccc(Cl)cc1`, the Ki in [1] is 25800 nM; in [8], 623 nM; in [2], 2.7 nM; in test [4] it was > 300000 nM; in test [3], 2.8 nM. The ED50 in [7] was > 100000 nM. Half-maximal inhibition in test [9] (IC50) required 327 nM.
In turn, `N[C@@H]1C[C@H]1c1ccccc1.N[C@H]1C[C@@H]1c1ccccc1` (racemic) [TRANYLCYPROMINE] returned a Ki in test [4] of 58700 nM.
For `CCCN(CC[C@]1(O)C[C@@H](NC(=O)c2ccc3ccccc3c2)C1)[C@H]1C[C@@H]1c1ccccc1`, the Ki is 3090 nM in test [1], 108 nM in test [2] and 2140 nM in [4]. The Ratio Ki was 20 in test [5] and 29 in [6].

Source of the values: ChEMBL document CHEMBL3259695 (J Med Chem, 2014).
